Measured values taken from ChEMBL document CHEMBL1151483, “Hantupeptin A, a cytotoxic cyclic depsipeptide from a Singapore collection of Lyngbya majuscula” (J Nat Prod, 2009).
Active and inactive are the calls of the source. The calls are words filed in the database; no cut-off is given here.

Columns and labels:
LoVo = assay: Cytotoxicity against human LoVo cells at 10 ug/mL after 24 hrs by MTT assay; type: functional, cell-based
KB = assay: Cytotoxicity against human KB cells at 10 ug/mL after 24 hrs by MTT assay; type: functional, cell-based
MOLT-4 = assay: Cytotoxicity against human MOLT4 cells after 24 hrs by MTT assay; type: functional, cell-based; conditions: MOLT-4, 24 h
[1] = Toxicity in brine shrimp at 100 ppm; type: organism-based; conditions: artemia, in vivo; read-out: Activity
[2] = Toxicity in brine shrimp at 10 ppm; type: organism-based; conditions: artemia, in vivo; read-out: Activity
MCF7 = assay: Cytotoxicity against human MCF7 cells after 24 hrs by MTT assay; type: functional, cell-based; conditions: MCF7, 24 h

Q: For C#CCCC[C@H]1OC(=O)[C@H]([C@@H](C)CC)NC(=O)[C@@H]2CCCN2C(=O)[C@H](Cc2ccccc2)OC(=O)[C@H](C(C)C)N(C)C(=O)[C@H](C(C)C)NC(=O)[C@H]1C, which Activity (LoVo) is on record?
A: inactive

Q: And the Activity (KB)?
A: inactive

Q: For C#CCCC[C@@H]1OC(=O)[C@H](C(C)C)N(C)C(=O)[C@@H]2CCCN2C(=O)[C@H](Cc2ccccc2)OC(=O)[C@H]([C@@H](C)CC)N(C)C(=O)[C@H](C(C)C)NC(=O)C1C (stereo partly drawn) [HANTUPEPTIN A], which IC50 (MOLT-4) is on record?
A: 32 nM

Q: What about the mortality at 100 ppm [1] of the same compound?
A: 100%

Q: And the mortality at 10 ppm [2]?
A: 100%

Q: And the IC50 (MCF7)?
A: 4000 nM

Q: And the Activity (LoVo)?
A: inactive

Q: And the Activity (KB)?
A: inactive
